Data from patent US20200392562A1, “[…] REACTION C[…]” (priority 2017, published 2020).
“Also recorded” adds a separate entry of the source. Structures can show the parent of a compound that is named as a salt. Where two headings read alike, the source gives them in different places.

Legend:
[1] = tested on: Platinum SuperFi DNA polymerase; format: biochemical; settings: for yield of PCR product: up to 20 μl of Agencourt XP magnetic beads in 50 μl PCR reaction, amine instead of 110 mM KCl
Procedure: PCR yield and tolerance for magnetic beads in PCR master mix with different amines compared to the control master mix (with KCl) was evaluated by amplification of a 1 kb fragment from 42 ng of human genomic DNA template. PCR was performed in 50 μl PCR reactions in the presence of increasing amounts of magnetic beads.
The PCR master mix (1×) concentration of KCl (110 mM) was substituted for solution comprising an amine.
Agencourt XP magnetic beads were used in the experiment. From 5 to 35 μl of magnetic beads were washed 2 times with 80% EtOH and dried (an imitation of a protocol for purifying nucleic acids). Dried magnetic beads were resuspended in 50 μl of PCR reaction (complete with PCR master mix, DNA matrix, and primers). The forward primer was SEQ ID No: 3, and the reverse primer was SEQ ID No: 4.
(§1) Products were detected by electrophoresis in a 1% TAE gels followed by staining with ethidium bromide.

[2] = tested on: mutant Taq DNA polymerase
[3] = tested on: Platinum SuperFi DNA polymerase
Procedure: Yield and tolerance for urea in PCR master mix with different amines compared to the control master mix (with KCl) was evaluated by amplification of a 1 kb fragment from 42 ng of human genomic DNA template in 50 μl PCR reactions.
PCR master mix (1×) composition was 0.16 u/μL Platinum SuperFi DNA polymerase in 1× SuperFi buffer. In some experiments, 110 mM of KCl was substituted for solution comprising amines. […]
The PCR program used for the experiment is described in Table 4.
as §1

[4] = tested on: SuperFi DNA polymerase
[5] = target: Taq DNA polymerase (Thermus aquaticus, UniProt P19821); format: biochemical
From the text: A forward primer (SEQ ID No: 1) and a reverse primer (SEQ ID No: 2) were used with the PCR program described in Table 3. PCR products were detected by agarose gel electrophoresis followed by ethidium bromide staining

[6] = PCR buffers containing amine, PCR buffer 1: 0.04%
[7] = sodium citrate 0-0.08%, PCR buffers with 10, 40 or 50 mM amine
[8] = urea 0-230 mM, PCR buffers with 10, 40 or 50 mM amine

Taq DNA polymerase, sequence (P19821 whole entry): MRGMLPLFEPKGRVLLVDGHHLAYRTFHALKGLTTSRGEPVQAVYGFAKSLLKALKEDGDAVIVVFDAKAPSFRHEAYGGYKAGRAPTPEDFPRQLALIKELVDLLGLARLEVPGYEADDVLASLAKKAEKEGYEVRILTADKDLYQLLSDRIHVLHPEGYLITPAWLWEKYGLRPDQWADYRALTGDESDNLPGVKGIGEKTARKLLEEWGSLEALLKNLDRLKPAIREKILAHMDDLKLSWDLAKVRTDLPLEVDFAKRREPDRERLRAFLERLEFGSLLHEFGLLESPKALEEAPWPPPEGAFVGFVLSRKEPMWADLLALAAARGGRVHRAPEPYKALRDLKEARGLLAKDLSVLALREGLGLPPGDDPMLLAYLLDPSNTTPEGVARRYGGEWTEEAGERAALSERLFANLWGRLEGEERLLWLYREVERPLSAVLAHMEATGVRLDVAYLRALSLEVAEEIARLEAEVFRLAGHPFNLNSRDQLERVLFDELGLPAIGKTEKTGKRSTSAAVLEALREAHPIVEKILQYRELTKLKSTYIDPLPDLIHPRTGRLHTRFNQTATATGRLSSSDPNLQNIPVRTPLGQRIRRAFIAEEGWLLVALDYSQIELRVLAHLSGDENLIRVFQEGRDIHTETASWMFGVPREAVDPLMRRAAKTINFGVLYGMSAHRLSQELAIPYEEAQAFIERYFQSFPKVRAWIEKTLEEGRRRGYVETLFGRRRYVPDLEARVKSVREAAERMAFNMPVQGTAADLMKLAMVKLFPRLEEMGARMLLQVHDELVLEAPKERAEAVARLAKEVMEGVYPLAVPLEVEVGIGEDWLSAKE

SMILES | tolerated amount of magnetic beads in the PCR reaction [1] | PCR product yield in the presence of magnetic beads ([1]; reaction buffer with 70, 80 or 90 mM KCl, part or all of the potassium salt replaced with amine, data not shown) | yield of PCR product [1] | PCR product yield [2] | PCR yield [3] | PCR product yield [4] | PCR product yield compared to PCR buffer 1 without amines [5] | sodium citrate concentration tolerated [5, 6] | tolerance to sodium citrate compared with PCR buffer 1 ([5]; sodium citrate 0-0.08%, PCR buffers containing amine) | PCR product yield compared with PCR buffer 1 [5, 7] | resistance to urea compared with PCR buffer 1 ([5]; urea 0-230 mM, PCR buffers containing amine) | PCR product yield compared with PCR buffer 1 [5, 8] | greater tolerance to sodium citrate compared to PCR buffer 1 ([5]; sodium citrate, PCR buffer 1: 0.04%) | greater tolerance to urea compared with PCR buffer 1 ([5]; urea, PCR buffer 1: 37 mM) | greater tolerance to sodium citrate compared to PCR buffer 1 [5] | greater tolerance to urea compared with PCR buffer 1 [5] | sodium citrate concentration tolerated [5] | PCR product yield compared with PCR buffer 1 ([5]; hydrochloride) | tolerance to urea compared to PCR buffer with KCl [3]
CNC [dimethylamine hydrochloride] | increased the tolerated amount | increased | Increased yield | increased | much higher | increased | – | – | – | – | – | – | – | – | – | – | – | – | –
CN(C)C [trimethylamine hydrochloride] | – | – | Increased yield | – | – | – | higher | 0.04% | same tolerance | Higher | same resistance | increased | – | – | – | – | – | – | –
CC(C)NC(C)C.Cl [diisopropylamine hydrochloride] | – | – | – | – | – | – | higher | 0.05% | – | Higher | – | increased | 1.25 times | 2.5 times | – | – | – | – | –
CCNCC.Cl [diethylamine hydrochloride] | – | – | Increased yield | – | much higher | – | higher | – | – | – | – | – | – | – | 1.25 times | 2.5 times | 0.05% | increased; also recorded: Higher | Increased tolerance
